Laboratory results: patent US20110039770A1, “INHIBITORS OF PROTEIN KINASE C ISOFORMS AND USES THEREOF” (PHARMAGAP INC., priority 2005, published 2011)
Each block holds one compound with its values, some of them ahead of it. Where a SMILES comes first, the peptide text is derived from it. [ ]: non-standard residue; d: D form.

Legend:
PKC-βII [1] = assay: Competitive binding assay using cell extracts (Western blot); parameters: species or system human; key: —: no detectable affinity; Low to very low affinity at 10X or 20X or both PRE concentrations in at least one cell line in the cell extract assay; Low affinity in purified isoform assay.; Moderate affinity at 10X or 20X or both PRE concentrations in at least one cell line in the cell extract assay.; High affinity at 10X or 20X or both PRE concentrations in at least one cell line in the cell extract assay; High affinity in purified isoform assay; details: Cell extract; PRE 10X or 20X antibody concentration
Method: (§1) Binding efficiency and specificity of the peptides PRE 2, 3, 4, 5, 6, 7, 8, 9, 10, 11, 12 and 13 (see Table 4) was also tested using cytoplasmic extracts from different cell lines expressing appropriate PKC isoforms as described for Example 1. Briefly, the protein cytoplasmic extracts were separated by electrophoresis and transferred onto nitrocellulose membranes by standard Western blotting procedures. The bands on the Western blots were detected with matching primary antibodies and alkaline phosphatase conjugated secondary antibody. The bands were then scanned and the relative density measurements obtained.
(§2) This procedure to assess the binding characteristics of the PREs is based on competition binding of the PRE with the primary anti-isoform PKC specific antibodies. The lower the measured band density, the greater the binding of the PRE to the PKC isoform. The PREs were added at 10 and 20 times (10×, 20×) the primary antibody concentration, according to classical competition between antigenic peptide and primary antibody. The following cell lines (obtained from the ATCC) were used: H661—NCI human lung carcinoma NSCLC; MDAMB231—human highly invasive breast cancer cell line from pleural effusion; LS180—human colon adenocarcinoma; LnCAP—human prostate adenocarcinoma; CCD16Lu—human lung fibroblasts; Du145—human prostate carcinoma brain metastasis, and T24—human bladder carcinoma.
(§3) In these cases, the 20× band density figures relative to control and 10× values were reliable.

PKC-ι = molecular target: T1, PKC-ι (Homo sapiens, UniProt P41743); assay: as above; parameters: key: —: no detectable affinity; Low to very low affinity at 10X or 20X or both PRE concentrations in at least one cell line in the cell extract assay; Low affinity in purified isoform assay.; Moderate affinity at 10X or 20X or both PRE concentrations in at least one cell line in the cell extract assay.; High affinity at 10X or 20X or both PRE concentrations in at least one cell line in the cell extract assay; High affinity in purified isoform assay; details: Cell extract; PRE 10X or 20X antibody concentration
T1 construct: cytoplasmic extracts from different cell lines expressing appropriate PKC isoforms; endogenous in cells; host or cells: H661, CCD16Lu, LnCAP, MDAMB231, Du145, LS180
T1 sequence (P41743 1-596): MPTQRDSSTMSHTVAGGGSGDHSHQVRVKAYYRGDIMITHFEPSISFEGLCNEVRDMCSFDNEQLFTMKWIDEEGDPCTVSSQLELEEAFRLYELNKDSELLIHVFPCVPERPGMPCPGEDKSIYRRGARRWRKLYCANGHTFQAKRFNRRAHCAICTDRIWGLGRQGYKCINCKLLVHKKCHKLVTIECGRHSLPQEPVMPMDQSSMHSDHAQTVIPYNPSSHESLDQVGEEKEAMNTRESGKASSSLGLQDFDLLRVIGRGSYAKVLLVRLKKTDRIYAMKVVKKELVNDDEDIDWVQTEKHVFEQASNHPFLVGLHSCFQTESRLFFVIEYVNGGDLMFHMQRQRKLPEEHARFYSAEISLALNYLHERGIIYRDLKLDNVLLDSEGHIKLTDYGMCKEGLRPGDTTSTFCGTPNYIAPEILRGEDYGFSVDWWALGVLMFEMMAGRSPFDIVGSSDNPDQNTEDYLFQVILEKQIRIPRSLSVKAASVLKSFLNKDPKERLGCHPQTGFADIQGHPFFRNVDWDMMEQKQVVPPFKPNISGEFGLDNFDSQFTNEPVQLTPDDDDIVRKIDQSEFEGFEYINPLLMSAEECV
Method: as §1, §2, §3

PKC-βI = PKC-βI (Homo sapiens, UniProt P05771); assay: Competition of PRE with PKC-βI antibody binding, Protocol B, IMR-32; parameters: PKC-βII by PRE 3 and PRE 4 in IMR-32 Neuroblastoma; endogenous in cells; host or cells: IMR-32 human neuroblastoma cells; details: for Band Intensity: Protocol B (control 170.5)
Method: (§4) The ability of the peptides PRE 2 and PRE 3 (see Table 4) to interfere with the binding of a PKC-α-specific polyclonal antibody (Santa Cruz Biotechnology, Inc.) to PKC-α was determined using a modified version of the protocol outlined above in which the test peptide was added directly to the cell extract prior to electrophoresis at a concentration of either 5× or 15× the concentration of the protein applied to each well of the gel for the Western blots (20 μg).
(§5) Peptides PRE 3 and PRE 4 (see Table 4) were tested for their ability to interfere with the binding of isoform-specific polyclonal antibodies (Santa Cruz Biotechnology, Inc.) to PKC-α, PKC-βI or PKC-βII using the general protocol described in Example 3.

PKC-βII [2] = molecular target: PKC-βII (Homo sapiens, UniProt P05771); assay: Competition of PRE with PKC-βII antibody binding, Protocol B, IMR-32; parameters: PKC-βII by PRE 3 and PRE 4 in IMR-32 Neuroblastoma; endogenous in cells; host or cells: IMR-32 human neuroblastoma cells; details: Protocol B (control 98.6)
Method: as §4, §5

PKC-α [3] = molecular target: T2, PKC-α (Homo sapiens, UniProt P17252); assay: Competition of PRE with PKC-α antibody binding, Protocol B (peptide added to cell extract before electrophoresis), IMR-32; parameters: endogenous PKC-α in (A) untreated human neuroblastoma (IMR-32) cells; endogenous in cells; host or cells: IMR-32 human neuroblastoma cells
Method: as §5

PKC-α [4] = molecular target: T2, PKC-α; assay: Subcellular localisation of PKC-α in IMR-32 cells; type: cell-based; parameters: endogenous PKC-α in (A) untreated human neuroblastoma (IMR-32) cells; endogenous in cells; host or cells: IMR-32 human neuroblastoma cells; details: 10 mg/ml, pinocytic endocytosis
Method: Peptides PRE 3 or PRE 4 (10 mg/ml) were introduced into human neuroblastoma cells (IMR-32) by pinocytic endocytosis. The cells were fixed and stained with rabbit PKC-α primary antibody and anti-rabbit Alexa-488 or Alexa-800 secondary antibody.

[5] = 100 μg, Example 5 (control 302.5)
[6] = 200 μg, Example 5 (control 302.5)
[7] = 300 μg, Example 5 (control 302.5)

Sequence of PKC-βII (Homo sapiens, UniProt P05771) (P05771 1-673 isoform P05771-2): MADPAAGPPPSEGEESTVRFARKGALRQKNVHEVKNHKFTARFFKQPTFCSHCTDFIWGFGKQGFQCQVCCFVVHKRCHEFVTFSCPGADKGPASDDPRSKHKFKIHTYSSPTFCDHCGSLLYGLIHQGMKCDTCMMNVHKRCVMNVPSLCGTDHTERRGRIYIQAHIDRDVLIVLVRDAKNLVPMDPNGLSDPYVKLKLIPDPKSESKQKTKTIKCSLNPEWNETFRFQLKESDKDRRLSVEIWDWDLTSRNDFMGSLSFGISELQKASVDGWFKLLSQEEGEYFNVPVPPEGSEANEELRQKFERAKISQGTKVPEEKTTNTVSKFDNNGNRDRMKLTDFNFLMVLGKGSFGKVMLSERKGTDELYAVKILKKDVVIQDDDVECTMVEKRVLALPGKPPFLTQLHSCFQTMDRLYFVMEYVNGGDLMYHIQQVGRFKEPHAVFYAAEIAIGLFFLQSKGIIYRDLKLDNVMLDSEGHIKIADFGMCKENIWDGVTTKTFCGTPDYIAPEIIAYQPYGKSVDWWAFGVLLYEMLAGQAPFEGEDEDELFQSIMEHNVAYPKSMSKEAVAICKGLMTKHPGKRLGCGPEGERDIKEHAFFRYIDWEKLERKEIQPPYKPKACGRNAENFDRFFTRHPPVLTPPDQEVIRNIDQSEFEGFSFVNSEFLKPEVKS
Sequence of PKC-βI (P05771 whole entry): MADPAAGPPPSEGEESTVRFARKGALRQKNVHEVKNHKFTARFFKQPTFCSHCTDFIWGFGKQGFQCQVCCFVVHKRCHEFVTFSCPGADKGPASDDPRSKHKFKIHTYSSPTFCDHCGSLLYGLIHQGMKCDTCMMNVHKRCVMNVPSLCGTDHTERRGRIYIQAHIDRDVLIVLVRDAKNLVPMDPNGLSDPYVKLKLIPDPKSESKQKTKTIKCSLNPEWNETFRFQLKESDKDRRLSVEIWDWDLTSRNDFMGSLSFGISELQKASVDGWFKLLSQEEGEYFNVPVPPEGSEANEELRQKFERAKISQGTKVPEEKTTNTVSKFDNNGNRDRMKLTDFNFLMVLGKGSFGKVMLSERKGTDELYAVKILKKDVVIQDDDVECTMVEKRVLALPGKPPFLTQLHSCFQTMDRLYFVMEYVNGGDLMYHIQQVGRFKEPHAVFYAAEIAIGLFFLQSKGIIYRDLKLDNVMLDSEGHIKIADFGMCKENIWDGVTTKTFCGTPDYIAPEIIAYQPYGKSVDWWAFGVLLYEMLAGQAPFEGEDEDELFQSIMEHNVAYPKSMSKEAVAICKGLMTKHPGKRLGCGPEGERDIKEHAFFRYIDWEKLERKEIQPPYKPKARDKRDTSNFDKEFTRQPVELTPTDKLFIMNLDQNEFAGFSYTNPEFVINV

Affinity for PKC isoform ι (PKC-ι): —
Compound: Ac-KDAQNLI-NH2 [PRE 12]
Affinity for PKC isoform βII (PKC-βII [1]): L

Compound: Ac-ISIGILNQADK-NH2 [PRE 10]
Affinity for PKC isoform βII (PKC-βII [1]): —

Affinity for PKC isoform ι (PKC-ι): L
Band Intensity (PKC-βI; 100 μg): 0.0
Relative Intensity (%) (PKC-βI; 200 μg, Protocol B): 0.0%
Band Intensity (PKC-βI; 200 μg): 0.0
Band Intensity (PKC-βI; 300 μg): 0.0
Band Intensity (PKC-βII [2]; 100 μg): 0.0
Band Intensity (PKC-βII [2]; 200 μg): 0.0
Band Intensity (PKC-βII [2]; 300 μg): 0.0
Band Intensity (PKC-α [3]; 100 μg, Example 3 (control 0.759)): 0.0
Band Intensity (PKC-α [3]; [5]): 0.0
Band Intensity (PKC-α [3]; 200 μg, Example 3 (control 0.759)): 0.0
Band Intensity (PKC-α [3]; [6]): 0.0
Band Intensity (PKC-α [3]; 300 μg, Example 3 (control 0.759)): 0.0
Band Intensity (PKC-α [3]; [7]): 0.0
Compound: CC[C@H](C)[C@H](NC(=O)[C@H](CO)NC(=O)[C@@H](NC(=O)CNC(=O)[C@@H](NC(=O)[C@H](CC(C)C)NC(=O)[C@H](CC(N)=O)NC(=O)[C@H](CCC(N)=O)NC(=O)[C@H](C)NC(=O)[C@H](CC(=O)O)NC(=O)CNC(=O)CNC(=O)[C@H](CCCCN)NC(=O)[C@@H](NC(=O)[C@H](CCC(=O)O)NC(=O)[C@H](CCC(N)=O)NC(=O)[C@@H](NC(=O)CNC(=O)[C@H](CCCCN)NC(=O)[C@H](C)NC(C)=O)[C@@H](C)CC)C(C)C)[C@@H](C)CC)[C@@H](C)CC)C(N)=O [PRE 3] (Ac-AKGIQEVKGGDAQNLIGISI-NH2)
Affinity for PKC isoform βII (PKC-βII [1]): L
effect on subcellular localisation of PKC-α (PKC-α [4]): does not alter the subcellular localisation of PKC-α

Compound: Ac-isigilqnadk-NH2 (Ac-[dI][dS][dI]G[dI][dL][dQ][dN][dA][dD][dK]-NH2; SMILES CC[C@@H](C)[C@@H](NC(C)=O)C(=O)N[C@H](CO)C(=O)N[C@@H](C(=O)NCC(=O)N[C@@H](C(=O)N[C@H](CC(C)C)C(=O)N[C@H](CCC(N)=O)C(=O)N[C@H](CC(N)=O)C(=O)N[C@H](C)C(=O)N[C@H](CC(=O)O)C(=O)N[C@H](CCCCN)C(N)=O)[C@H](C)CC)[C@H](C)CC) [PRE 9]
Affinity for PKC isoform βII (PKC-βII [1]): —

Affinity for PKC isoform ι (PKC-ι): —
Compound: Ac-ISIGILQNADK-NH2 (not fully specified; printed as Ac-ISIGILQNADK-NH2) [PRE 7]

Affinity for PKC isoform ι (PKC-ι): —
Compound: Ac-RDAQNLI-NH2 [PRE 13]

Compound: ILEDKGGDAQNLIGISI [PRE 8]
Affinity for PKC isoform βII (PKC-βII [1]): H

Affinity for PKC isoform ι (PKC-ι): —
Compound: RRKKGGKDFVVKR [PRE 1]

Affinity for PKC isoform ι (PKC-ι): —
Compound: Ac-KDANQLIGISI-NH2 [PRE 6]

Affinity for PKC isoform ι (PKC-ι): M/L
Band Intensity (PKC-βI; 100 μg): 112.5
Band Intensity (PKC-βI; 200 μg): 0.0
Band Intensity (PKC-βI; 300 μg): 0.0
Band Intensity (PKC-βII [2]; 100 μg): 69.58
Band Intensity (PKC-βII [2]; 200 μg): 0.0
Band Intensity (PKC-βII [2]; 300 μg): 0.0
Band Intensity (PKC-α [3]; [5]): 32.2
Band Intensity (PKC-α [3]; [6]): 1.5
Band Intensity (PKC-α [3]; [7]): 0.0
Compound: CC[C@H](C)[C@H](NC(=O)[C@H](CO)NC(=O)[C@@H](NC(=O)CNC(=O)[C@@H](NC(=O)[C@H](CC(C)C)NC(=O)[C@H](CC(N)=O)NC(=O)[C@H](CCC(N)=O)NC(=O)[C@H](C)NC(=O)[C@H](CC(=O)O)NC(=O)[C@H](CCCCN)NC(C)=O)[C@@H](C)CC)[C@@H](C)CC)C(N)=O [PRE 4, Ac-KDAQNLIGISI-NH2] (Ac-KDAQNLIGISI-NH2)
Affinity for PKC isoform βII (PKC-βII [1]): L
effect on subcellular localisation of PKC-α (PKC-α [4]): prevented translocation of PKC-α to the membrane

Compound: CC[C@H](C)[C@H](NC(=O)[C@H](CO)NC(=O)[C@@H](NC(=O)CNC(=O)[C@@H](NC(=O)[C@H](CC(C)C)NC(=O)[C@H](CC(N)=O)NC(=O)[C@H](CCC(N)=O)NC(=O)[C@H](C)NC(=O)[C@H](CC(=O)O)NC(=O)[C@H](CCCCN)NC(=O)CNC(=O)CNC(=O)[C@H](CCCCN)NC(=O)[C@@H](NC(=O)[C@H](CCC(=O)O)NC(=O)[C@H](CCC(N)=O)NC(=O)[C@@H](NC(=O)CNC(=O)[C@H](CCCCN)NC(=O)[C@H](C)NC(C)=O)[C@@H](C)CC)C(C)C)[C@@H](C)CC)[C@@H](C)CC)C(N)=O [PRE 5] (Ac-AKGIQEVKGGKDAQNLIGISI-NH2)
Affinity for PKC isoform βII (PKC-βII [1]): H
